Measured values reported in the kinase profiling compilation of Christmann-Franck et al. (2016).

Experiments:
Test in all cases: radiometric filter-binding kinase assay, Kinase HotSpot
Details in all cases: compound 0.5 µM; ATP 10 µM
MAPK1 (human) = MAPK1 (human) (UniProt P28482)
GSG2 (human) = GSG2 (human) (UniProt Q8TF76)
RPS6KA4 KD2 (human) = RPS6KA4 KD2 (human) (UniProt O75676)
MAPKAPK2 (human) = MAPKAPK2 (human) (UniProt P49137)
ITK (human) = ITK (human) (UniProt Q08881)
IRAK4 (human) = IRAK4 (human) (UniProt Q9NWZ3)
MAP2K1 (human) = MAP2K1 (human) (UniProt Q02750)
YES1 (human) = YES1 (human) (UniProt P07947)
Sequence of YES1 (human) (P07947 whole entry, looked up): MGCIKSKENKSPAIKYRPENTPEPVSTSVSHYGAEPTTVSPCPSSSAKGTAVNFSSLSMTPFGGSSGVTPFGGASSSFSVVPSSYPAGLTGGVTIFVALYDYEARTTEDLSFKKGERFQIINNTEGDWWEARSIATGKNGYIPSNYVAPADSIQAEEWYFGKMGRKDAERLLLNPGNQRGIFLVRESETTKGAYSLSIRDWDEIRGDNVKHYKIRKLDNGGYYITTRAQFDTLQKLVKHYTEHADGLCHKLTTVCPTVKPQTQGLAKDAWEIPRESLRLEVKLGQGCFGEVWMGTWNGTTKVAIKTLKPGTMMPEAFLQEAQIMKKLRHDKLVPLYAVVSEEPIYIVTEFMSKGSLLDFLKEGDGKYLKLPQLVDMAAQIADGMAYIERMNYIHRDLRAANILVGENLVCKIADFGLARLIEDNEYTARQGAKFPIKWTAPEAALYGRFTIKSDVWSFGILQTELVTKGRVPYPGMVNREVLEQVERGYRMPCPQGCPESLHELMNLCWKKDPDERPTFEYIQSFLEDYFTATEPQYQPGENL

BMX (human) = BMX (human) (UniProt P51813)
CSF1R (human) = CSF1R (human) (UniProt P07333)
PBK (human) = PBK (human) (UniProt Q96KB5)
Sequence of PBK (human) (Q96KB5 whole entry, looked up): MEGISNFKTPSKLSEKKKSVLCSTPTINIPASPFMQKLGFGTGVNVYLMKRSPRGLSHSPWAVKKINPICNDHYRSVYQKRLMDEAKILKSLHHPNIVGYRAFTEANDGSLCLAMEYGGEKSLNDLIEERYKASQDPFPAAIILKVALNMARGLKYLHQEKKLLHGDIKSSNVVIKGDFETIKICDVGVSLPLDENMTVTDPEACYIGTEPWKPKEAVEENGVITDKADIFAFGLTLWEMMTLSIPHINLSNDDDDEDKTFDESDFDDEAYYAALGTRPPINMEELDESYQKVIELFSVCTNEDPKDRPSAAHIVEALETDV

MINK1 (human) = MINK1 (human) (UniProt Q8N4C8)
SLK (human) = SLK (human) (UniProt Q9H2G2)
TNK2 (human) = TNK2 (human) (UniProt Q07912)
CAMK2G (human) = CAMK2G (human) (UniProt Q13555)
DYRK3 (human) = DYRK3 (human) (UniProt O43781)
Sequence of DYRK3 (human) (O43781 whole entry, looked up): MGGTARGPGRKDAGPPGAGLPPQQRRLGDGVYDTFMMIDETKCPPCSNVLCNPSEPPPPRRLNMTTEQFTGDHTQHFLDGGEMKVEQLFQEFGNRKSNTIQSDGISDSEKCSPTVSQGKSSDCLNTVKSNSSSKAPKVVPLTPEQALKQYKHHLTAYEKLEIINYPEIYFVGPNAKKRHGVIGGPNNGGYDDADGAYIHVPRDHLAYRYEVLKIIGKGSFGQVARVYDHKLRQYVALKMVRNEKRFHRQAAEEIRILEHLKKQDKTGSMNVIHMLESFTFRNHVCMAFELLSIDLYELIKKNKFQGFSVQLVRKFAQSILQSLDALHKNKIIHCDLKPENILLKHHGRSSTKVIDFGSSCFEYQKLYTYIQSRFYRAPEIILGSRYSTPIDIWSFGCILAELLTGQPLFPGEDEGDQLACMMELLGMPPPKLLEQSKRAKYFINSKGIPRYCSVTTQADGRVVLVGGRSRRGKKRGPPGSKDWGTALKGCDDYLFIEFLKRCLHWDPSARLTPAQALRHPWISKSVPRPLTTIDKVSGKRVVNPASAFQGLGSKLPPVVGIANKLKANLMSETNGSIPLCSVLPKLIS

MST1R (human) = MST1R (human) (UniProt Q04912)
EPHA3 (human) = EPHA3 (human) (UniProt P29320)
PAK1 (human) = PAK1 (human) (UniProt Q13153)
Sequence of PAK1 (human) (Q13153 whole entry, looked up): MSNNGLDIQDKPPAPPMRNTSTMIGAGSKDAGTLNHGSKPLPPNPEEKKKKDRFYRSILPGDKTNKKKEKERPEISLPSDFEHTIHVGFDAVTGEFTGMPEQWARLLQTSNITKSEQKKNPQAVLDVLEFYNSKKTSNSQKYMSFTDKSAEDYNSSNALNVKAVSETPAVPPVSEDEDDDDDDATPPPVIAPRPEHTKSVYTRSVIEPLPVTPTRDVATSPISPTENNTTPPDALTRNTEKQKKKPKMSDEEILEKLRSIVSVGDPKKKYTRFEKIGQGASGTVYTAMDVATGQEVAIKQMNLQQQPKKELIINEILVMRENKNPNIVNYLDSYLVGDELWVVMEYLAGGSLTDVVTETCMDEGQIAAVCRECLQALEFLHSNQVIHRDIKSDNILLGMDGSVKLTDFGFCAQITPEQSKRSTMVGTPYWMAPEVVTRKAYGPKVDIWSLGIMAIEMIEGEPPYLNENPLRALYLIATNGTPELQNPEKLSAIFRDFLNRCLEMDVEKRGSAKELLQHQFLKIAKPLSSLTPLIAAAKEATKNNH

ROCK1 (human) = ROCK1 (human) (UniProt Q13464)
ROCK2 (human) = ROCK2 (human) (UniProt O75116)
NEK11 (human) = NEK11 (human) (UniProt Q8NG66)
Sequence of NEK11 (human) (Q8NG66 whole entry, looked up): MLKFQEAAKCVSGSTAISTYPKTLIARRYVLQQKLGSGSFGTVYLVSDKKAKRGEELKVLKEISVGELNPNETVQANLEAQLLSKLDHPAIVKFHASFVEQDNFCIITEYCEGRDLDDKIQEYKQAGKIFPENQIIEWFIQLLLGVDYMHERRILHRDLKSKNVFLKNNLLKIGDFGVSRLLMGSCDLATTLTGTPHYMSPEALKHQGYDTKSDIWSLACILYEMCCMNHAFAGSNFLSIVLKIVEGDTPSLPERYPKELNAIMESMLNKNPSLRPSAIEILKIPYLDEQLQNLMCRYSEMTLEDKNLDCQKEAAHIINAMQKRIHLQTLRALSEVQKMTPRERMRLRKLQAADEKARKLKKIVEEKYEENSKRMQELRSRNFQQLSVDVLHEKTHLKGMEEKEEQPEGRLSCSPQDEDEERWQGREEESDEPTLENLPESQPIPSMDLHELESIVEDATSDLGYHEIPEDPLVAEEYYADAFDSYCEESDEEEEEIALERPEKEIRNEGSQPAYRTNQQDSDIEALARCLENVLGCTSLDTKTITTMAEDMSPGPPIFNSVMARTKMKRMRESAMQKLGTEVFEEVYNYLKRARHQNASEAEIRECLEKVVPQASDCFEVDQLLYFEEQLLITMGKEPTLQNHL

MUSK (human) = MUSK (human) (UniProt O15146)
IGF1R (human) = IGF1R (human) (UniProt P08069)
CDK6 CCND3 (human) = CDK6 CCND3 (human) (UniProt P30281+Q00534)
CDK2 CCNE1 (human) = CDK2 CCNE1 (human) (UniProt P24941+P24864)
PTK2 (human) = PTK2 (human) (UniProt Q05397)
Sequence of PTK2 (human) (Q05397 whole entry, looked up): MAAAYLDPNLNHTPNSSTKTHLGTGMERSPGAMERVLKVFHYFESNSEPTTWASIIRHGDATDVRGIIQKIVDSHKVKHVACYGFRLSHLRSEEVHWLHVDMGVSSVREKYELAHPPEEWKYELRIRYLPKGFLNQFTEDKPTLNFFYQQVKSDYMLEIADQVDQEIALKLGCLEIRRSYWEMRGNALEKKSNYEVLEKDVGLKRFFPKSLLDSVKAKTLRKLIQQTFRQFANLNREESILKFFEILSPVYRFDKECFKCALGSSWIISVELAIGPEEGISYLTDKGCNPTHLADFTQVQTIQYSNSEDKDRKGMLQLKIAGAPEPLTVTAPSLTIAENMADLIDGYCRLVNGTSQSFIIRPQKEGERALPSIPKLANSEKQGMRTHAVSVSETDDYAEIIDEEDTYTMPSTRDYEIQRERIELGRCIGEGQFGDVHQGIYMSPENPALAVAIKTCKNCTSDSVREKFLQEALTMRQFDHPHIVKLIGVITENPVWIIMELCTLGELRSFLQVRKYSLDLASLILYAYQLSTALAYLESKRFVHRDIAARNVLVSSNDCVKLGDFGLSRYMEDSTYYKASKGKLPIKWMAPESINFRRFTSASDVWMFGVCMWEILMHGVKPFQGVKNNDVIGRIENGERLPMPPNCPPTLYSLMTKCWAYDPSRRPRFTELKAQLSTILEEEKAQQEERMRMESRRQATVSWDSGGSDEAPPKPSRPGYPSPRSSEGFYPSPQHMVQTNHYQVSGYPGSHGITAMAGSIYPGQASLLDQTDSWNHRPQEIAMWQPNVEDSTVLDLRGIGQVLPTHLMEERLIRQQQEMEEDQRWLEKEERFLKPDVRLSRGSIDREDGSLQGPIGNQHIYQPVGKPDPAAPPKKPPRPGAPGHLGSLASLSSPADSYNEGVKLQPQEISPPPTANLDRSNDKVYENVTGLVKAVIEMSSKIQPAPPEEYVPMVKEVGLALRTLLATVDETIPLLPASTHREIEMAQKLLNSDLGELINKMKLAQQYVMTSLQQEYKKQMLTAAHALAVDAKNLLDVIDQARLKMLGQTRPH

SRC (human) = SRC (human) (UniProt P12931)
[1] = molecular target: TYK2 JH1 catalytic (human) (UniProt P29597)
CAMK2A (human) = CAMK2A (human) (UniProt Q9UQM7)
Sequence of CAMK2A (human) (Q9UQM7 whole entry, looked up): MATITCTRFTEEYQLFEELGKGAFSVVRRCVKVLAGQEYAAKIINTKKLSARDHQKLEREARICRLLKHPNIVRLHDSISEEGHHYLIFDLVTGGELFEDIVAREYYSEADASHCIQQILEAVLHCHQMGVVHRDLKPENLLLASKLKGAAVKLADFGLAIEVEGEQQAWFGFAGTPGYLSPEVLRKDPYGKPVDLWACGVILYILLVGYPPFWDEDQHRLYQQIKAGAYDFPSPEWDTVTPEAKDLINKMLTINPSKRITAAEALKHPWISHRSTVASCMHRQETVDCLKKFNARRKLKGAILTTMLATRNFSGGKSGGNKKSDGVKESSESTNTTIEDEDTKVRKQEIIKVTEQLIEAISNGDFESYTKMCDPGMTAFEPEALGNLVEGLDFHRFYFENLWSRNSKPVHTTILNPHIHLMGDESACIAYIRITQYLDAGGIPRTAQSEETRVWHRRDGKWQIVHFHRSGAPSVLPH

PIM3 (human) = PIM3 (human) (UniProt Q86V86)
MAP4K4 (human) = MAP4K4 (human) (UniProt O95819)
PRKD1 (human) = PRKD1 (human) (UniProt Q15139)
FER (human) = FER (human) (UniProt P16591)
RPS6KA3 KD1 KD2 (human) = RPS6KA3 KD1 KD2 (human) (UniProt P51812)
STK39 (human) = STK39 (human) (UniProt Q9UEW8)
MATK (human) = MATK (human) (UniProt P42679)
Sequence of MATK (human) (P42679 whole entry, looked up): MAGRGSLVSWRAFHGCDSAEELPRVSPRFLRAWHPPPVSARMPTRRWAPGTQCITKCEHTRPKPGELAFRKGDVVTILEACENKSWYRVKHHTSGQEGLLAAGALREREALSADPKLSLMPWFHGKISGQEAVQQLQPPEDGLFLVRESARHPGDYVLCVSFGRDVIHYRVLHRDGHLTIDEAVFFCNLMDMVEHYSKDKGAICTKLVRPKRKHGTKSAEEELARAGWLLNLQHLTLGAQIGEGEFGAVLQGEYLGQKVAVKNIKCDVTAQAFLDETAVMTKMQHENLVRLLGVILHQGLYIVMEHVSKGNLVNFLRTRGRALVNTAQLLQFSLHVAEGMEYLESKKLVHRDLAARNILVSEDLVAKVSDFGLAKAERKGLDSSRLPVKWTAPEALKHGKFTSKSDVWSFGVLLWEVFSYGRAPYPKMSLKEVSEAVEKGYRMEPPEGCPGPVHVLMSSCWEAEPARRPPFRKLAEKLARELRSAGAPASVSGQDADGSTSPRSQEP

MAP2K2 (human) = MAP2K2 (human) (UniProt P36507)
PKN1 (human) = PKN1 (human) (UniProt Q16512)
WNK2 (human) = WNK2 (human) (UniProt Q9Y3S1)
MAP4K2 (human) = MAP4K2 (human) (UniProt Q12851)
PRKCB2 (human) = PRKCB2 (human) (UniProt P05771)

CCCNC(=O)Nc1ccc(Oc2ncnc3cc(OC)c(OC)cc23)cc1Cl
residual activity (MAPK1 (human)): 101% | residual activity (GSG2 (human)): 99.1% | residual activity (RPS6KA4 KD2 (human)): 98.5% | residual activity (MAPKAPK2 (human)): 101% | residual activity (ITK (human)): 96.9% | residual activity (IRAK4 (human)): 92% | residual activity (MAP2K1 (human)): 99.2% | residual activity (YES1 (human)): 82.1% | residual activity (BMX (human)): 93.6% | residual activity (CSF1R (human)): 51.1% | residual activity (PBK (human)): 66.2% | residual activity (MINK1 (human)): 90.1% | residual activity (SLK (human)): 80% | residual activity (TNK2 (human)): 96.5% | residual activity (CAMK2G (human)): 90.5% | residual activity (DYRK3 (human)): 99.7% | residual activity (MST1R (human)): 89.3% | residual activity (EPHA3 (human)): 98.5% | residual activity (PAK1 (human)): 93.8% | residual activity (ROCK1 (human)): 99.7% | residual activity (ROCK2 (human)): 97.7% | residual activity (NEK11 (human)): 101% | residual activity (MUSK (human)): 101% | residual activity (IGF1R (human)): 77% | residual activity (CDK6 CCND3 (human)): 89.5% | residual activity (CDK2 CCNE1 (human)): 95.2% | residual activity (PTK2 (human)): 99.6% | residual activity (SRC (human)): 98.6% | residual activity [1]: 95.2% | residual activity (CAMK2A (human)): 97.5% | residual activity (PIM3 (human)): 81.3% | residual activity (MAP4K4 (human)): 86.4% | residual activity (PRKD1 (human)): 92.9% | residual activity (FER (human)): 74.1% | residual activity (RPS6KA3 KD1 KD2 (human)): 94.9% | residual activity (STK39 (human)): 88% | residual activity (MATK (human)): 96.8% | residual activity (MAP2K2 (human)): 99.9% | residual activity (PKN1 (human)): 99.1% | residual activity (WNK2 (human)): 100% | residual activity (MAP4K2 (human)): 83.1% | residual activity (PRKCB2 (human)): 93.6%

Cc1cc2ncc(-c3ccccc3)nc2cc1C
residual activity (MAPK1 (human)): 88% | residual activity (GSG2 (human)): 91.5% | residual activity (RPS6KA4 KD2 (human)): 99.4% | residual activity (MAPKAPK2 (human)): 95.9% | residual activity (ITK (human)): 100% | residual activity (IRAK4 (human)): 93.1% | residual activity (MAP2K1 (human)): 98% | residual activity (YES1 (human)): 102% | residual activity (BMX (human)): 90% | residual activity (CSF1R (human)): 82.1% | residual activity (PBK (human)): 94.5% | residual activity (MINK1 (human)): 91.8% | residual activity (SLK (human)): 91.9% | residual activity (TNK2 (human)): 98.4% | residual activity (CAMK2G (human)): 105% | residual activity (DYRK3 (human)): 89.2% | residual activity (MST1R (human)): 99.4% | residual activity (EPHA3 (human)): 109% | residual activity (PAK1 (human)): 97.8% | residual activity (ROCK1 (human)): 100% | residual activity (ROCK2 (human)): 88.1% | residual activity (NEK11 (human)): 104% | residual activity (MUSK (human)): 102% | residual activity (IGF1R (human)): 86.8% | residual activity (CDK6 CCND3 (human)): 86.7% | residual activity (CDK2 CCNE1 (human)): 91.8% | residual activity (PTK2 (human)): 92.5% | residual activity (SRC (human)): 104% | residual activity [1]: 97.6% | residual activity (CAMK2A (human)): 98.4% | residual activity (PIM3 (human)): 103% | residual activity (MAP4K4 (human)): 85% | residual activity (PRKD1 (human)): 100% | residual activity (FER (human)): 91% | residual activity (RPS6KA3 KD1 KD2 (human)): 94.2% | residual activity (STK39 (human)): 103% | residual activity (MATK (human)): 95.4% | residual activity (MAP2K2 (human)): 97.6% | residual activity (PKN1 (human)): 92.5% | residual activity (WNK2 (human)): 98.8% | residual activity (MAP4K2 (human)): 113% | residual activity (PRKCB2 (human)): 124%

CC(C)n1cnc2c(Nc3cccc(Cl)c3)nc(NCCO)nc21
residual activity (MAPK1 (human)): 107% | residual activity (GSG2 (human)): 94.7% | residual activity (RPS6KA4 KD2 (human)): 83.8% | residual activity (MAPKAPK2 (human)): 98.9% | residual activity (ITK (human)): 96% | residual activity (IRAK4 (human)): 95.2% | residual activity (MAP2K1 (human)): 92.8% | residual activity (YES1 (human)): 33.7% | residual activity (BMX (human)): 92.5% | residual activity (CSF1R (human)): 94.8% | residual activity (PBK (human)): 101% | residual activity (MINK1 (human)): 86.3% | residual activity (SLK (human)): 84.8% | residual activity (TNK2 (human)): 70.8% | residual activity (CAMK2G (human)): 106% | residual activity (DYRK3 (human)): 97.2% | residual activity (MST1R (human)): 101% | residual activity (EPHA3 (human)): 90.3% | residual activity (PAK1 (human)): 97.1% | residual activity (ROCK1 (human)): 101% | residual activity (ROCK2 (human)): 97.5% | residual activity (NEK11 (human)): 109% | residual activity (MUSK (human)): 58.6% | residual activity (IGF1R (human)): 90% | residual activity (CDK6 CCND3 (human)): 89.7% | residual activity (CDK2 CCNE1 (human)): 37.2% | residual activity (PTK2 (human)): 68.9% | residual activity (SRC (human)): 68.9% | residual activity [1]: 105% | residual activity (CAMK2A (human)): 99.1% | residual activity (PIM3 (human)): 90.4% | residual activity (MAP4K4 (human)): 75.5% | residual activity (PRKD1 (human)): 99.2% | residual activity (FER (human)): 79.5% | residual activity (RPS6KA3 KD1 KD2 (human)): 60.1% | residual activity (STK39 (human)): 100% | residual activity (MATK (human)): 93.3% | residual activity (MAP2K2 (human)): 97.6% | residual activity (PKN1 (human)): 101% | residual activity (WNK2 (human)): 93.6% | residual activity (MAP4K2 (human)): 87.6% | residual activity (PRKCB2 (human)): 99.7%
